Data reported in patent US8802597B2, “Herbicidal pyrimidines” (E I du Pont de Nemours and Company, priority 2003, dated 2014).
Like-named read-outs stand apart in the source and are kept apart here.

Columns and labels:
Assay type in all cases: in vivo
[1] = tested on: yellow nutsedge (Cyperus esculentus); test: Test C pre/postemergence
How it was run: (§1)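 Visual injury ratings, 0 (no effect) to 100 (complete control), made 12 to 14 days after treatment by comparison with untreated controls. Greenhouse plants received test chemical in a surfactant-containing non-phytotoxic solvent, either preemergence on planted seeds or postemergence at the 1- to 4-leaf stage.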

[2] = tested on: velvetleaf (Abutilon theophrasti); test: Test C pre/postemergence
How it was run: as §1

[3] = tested on: eastern black nightshade (Solanum ptycanthum); test: Test C pre/postemergence; settings: Preemergence
How it was run: as §1

[4] = tested on: late watergrass (Echinochloa oryzicola); test: Test E flooded paddy water application; settings: Flood, 21 days, scale 0 to 100 (0 no effect, 100 complete control)
How it was run: (§2)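 Response scored visually on a 0–100 scale (100 = complete control) at 21 days against untreated pots. Treatment was into paddy water 3 cm deep over silt loam, with plants at the 2.0–2.5-leaf stage, grown under 16-h light at 29.5/26.7 °C day/night.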

[5] = tested on: early watergrass (Echinochloa oryzoides); test: Test E flooded paddy water application; settings: Flood, 21 days, scale 0 to 100 (0 no effect, 100 complete control)
How it was run: as §2

[6] = tested on: water seeded rice seedlings (Oryza sativa cv. ‘Japonica-M202’); test: Test E flooded paddy water application; settings: Flood, 21 days, scale 0 to 100 (0 no effect, 100 complete control)
How it was run: as §2

[7] = tested on: transplanted rice seedlings (Oryza sativa cv. ‘Japonica-M202’); test: Test E flooded paddy water application; settings: Flood, 21 days, scale 0 to 100 (0 no effect, 100 complete control)
How it was run: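 Greenhouse pots of Tama silt loam with weeds and rice at 2.0–2.5-leaf stage, flooded to 3 cm; compounds applied directly into paddy water, depth maintained. Visual rating versus untreated controls after 21 days, 0 (no effect) to 100 (complete control); 29.5/26.7 °C, 16-h photoperiod.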

[8] = tested on: bearded (brdd.) sprangletop (Leptochloa fusca ssp. fascicularis); test: Test E flooded paddy water application; settings: Flood, 21 days, scale 0 to 100 (0 no effect, 100 complete control)
How it was run: as §2

[9] = tested on: ducksalad (Heteranthera limosa); test: Test E flooded paddy water application; settings: Flood, 21 days, scale 0 to 100 (0 no effect, 100 complete control)
How it was run: as §2

[10] = tested on: barnyardgrass (Echinochloa crus-galli); test: Test E flooded paddy water application; settings: Flood, 21 days, scale 0 to 100 (0 no effect, 100 complete control)
How it was run: as §2

[11] = tested on: junglerice (Echinochloa colona); test: Test E flooded paddy water application; settings: Flood, 21 days, scale 0 to 100 (0 no effect, 100 complete control)
How it was run: as §2

[12] = tested on: smallflower umbrella sedge (Cyperus difformis); test: Test E flooded paddy water application; settings: Flood, 21 days, scale 0 to 100 (0 no effect, 100 complete control)
How it was run: as §2

[13] = Cyperus, post-emergence, Postemergence, 31 g ai/ha, read-out: Plant response rating (scale of 0 to 100), Nutsedge, Yellow
[14] = Cyperus, post-emergence, Postemergence, 125 g ai/ha, scale 0 to 100 (0 no effect, 100 complete control), read-out: Nutsedge, Yellow plant response rating
[15] = Cyperus, pre-emergence, Preemergence, 31 g ai/ha, scale 0 to 100, 0 no effect, 100 complete control, read-out: Plant response rating, Nutsedge, Yellow
[16] = Cyperus, pre-emergence, Preemergence, 62 g ai/ha, scale 0 to 100, 0 no effect, 100 complete control, read-out: Plant response rating, Nutsedge, Yellow
[17] = Abutilon theophrasti, post-emergence, Postemergence, 31 g ai/ha, read-out: Plant response rating (scale of 0 to 100), Velvetleaf
[18] = Abutilon theophrasti, post-emergence, Postemergence, 125 g ai/ha, scale 0 to 100 (0 no effect, 100 complete control), read-out: Velvetleaf plant response rating
[19] = Abutilon theophrasti, pre-emergence, Preemergence, 62 g ai/ha, scale 0 to 100, 0 no effect, 100 complete control, read-out: Plant response rating, Velvetleaf
[20] = Preemergence, 62 g ai/ha, scale 0 to 100, 0 no effect, 100 complete control
[21] = Preemergence, 125 g ai/ha, scale 0 to 100
[22] = Preemergence, 250 g ai/ha, scale 0 to 100
[23] = Preemergence, 500 g ai/ha, scale 0 to 100
[24] = 62 g ai/ha, scale 0 to 100, 0 no effect, 100 complete control
[25] = Preemergence, 31 g ai/ha, scale 0 to 100, 0 no effect, 100 complete control
[26] = Preemergence, 16 g ai/ha, scale 0 to 100, 0 no effect, 100 complete control

## COC(=O)c1nc(C(C)C)nc(N)c1Br [Compound 3]
[1]; [13]
  pest or weed control at 31 g/ha: 0%
[1]; Cyperus, post-emergence, Postemergence, 62 g ai/ha, scale 0 to 100 (0 no effect, 100 complete control), read-out: Nutsedge, Yellow plant response rating
  pest or weed control at 62 g/ha: 0%
[1]; [14]
  pest or weed control at 125 g/ha: 0%
[1]; Cyperus, post-emergence, Postemergence, 250 g ai/ha, scale 0 to 100, read-out: Plant response rating, Nutsedge, Yellow
  pest or weed control at 250 g/ha: 0%
[1]; [15]
  pest or weed control at 31 g/ha: 0%
[1]; [16]
  pest or weed control at 62 g/ha: 0%
[1]; Cyperus, pre-emergence, Preemergence, 125 g ai/ha, scale 0 to 100, read-out: Plant response rating, Nutsedge, Yellow
  pest or weed control at 125 g/ha: 0%
[1]; Cyperus, pre-emergence, Preemergence, 250 g ai/ha, scale 0 to 100, read-out: Plant response rating, Nutsedge, Yellow
  pest or weed control at 250 g/ha: 0%
[2]; [17]
  pest or weed control at 31 g/ha: 25%
[2]; Abutilon theophrasti, post-emergence, Postemergence, 62 g ai/ha, scale 0 to 100 (0 no effect, 100 complete control), read-out: Velvetleaf plant response rating
  pest or weed control at 62 g/ha: 55%
[2]; [18]
  pest or weed control at 125 g/ha: 55%
[2]; Abutilon theophrasti, post-emergence, Postemergence, 250 g ai/ha, scale 0 to 100, read-out: Plant response rating, Velvetleaf
  pest or weed control at 250 g/ha: 70%
[2]; Abutilon theophrasti, pre-emergence, Preemergence, 31 g ai/ha, scale 0 to 100, 0 no effect, 100 complete control, read-out: Plant response rating, Velvetleaf
  pest or weed control at 31 g/ha: 0%
[2]; [19]
  pest or weed control at 62 g/ha: 0%
[2]; Abutilon theophrasti, pre-emergence, Preemergence, 125 g ai/ha, scale 0 to 100, read-out: Plant response rating, Velvetleaf
  pest or weed control at 125 g/ha: 20%
[2]; Abutilon theophrasti, pre-emergence, Preemergence, 250 g ai/ha, scale 0 to 100, read-out: Plant response rating, Velvetleaf
  pest or weed control at 250 g/ha: 35%
[3]; Solanum, pre-emergence, 31 g ai/ha, scale 0 to 100, 0 no effect, 100 complete control, read-out: Plant response rating, Nightshade
  pest or weed control at 31 g/ha: 0%
[3]; Solanum, pre-emergence, 62 g ai/ha, scale 0 to 100, 0 no effect, 100 complete control, read-out: Plant response rating, Nightshade
  pest or weed control at 62 g/ha: 0%
[3]; Solanum, pre-emergence, 125 g ai/ha, scale 0 to 100, read-out: Plant response rating, Nightshade
  pest or weed control at 125 g/ha: 0%
[3]; Solanum, pre-emergence, 250 g ai/ha, scale 0 to 100, read-out: Plant response rating, Nightshade
  pest or weed control at 250 g/ha: 20%

## CCOC(=O)Cc1nc(C2CC2)nc(N=CN(C)C)c1Br [Compound 33]
[1]; [20]
  Plant response rating, Nutsedge, Yellow: 0
[1]; [21]
  Plant response rating, Nutsedge, Yellow: 0
[1]; [22]
  Plant response rating, Nutsedge, Yellow: 0
[1]; [23]
  Plant response rating, Nutsedge, Yellow: 0
[2]; [20]
  Plant response rating, Velvetleaf: 0
[2]; [21]
  Plant response rating, Velvetleaf: 20
[2]; [22]
  Plant response rating, Velvetleaf: 60
[2]; [23]
  Plant response rating, Velvetleaf: 85
[3]; [24]
  Plant response rating, Nightshade: 0
[3]; 125 g ai/ha, scale 0 to 100
  Plant response rating, Nightshade: 50
[3]; 250 g ai/ha, scale 0 to 100
  Plant response rating, Nightshade: 95
[3]; 500 g ai/ha, scale 0 to 100
  Plant response rating, Nightshade: 100

## CCOC(=O)Cc1nc(C2CC2)nc(N)c1Br [Compound 12]
[1]; [25]
  Plant response rating, Nutsedge, Yellow: 0
[1]; [20]
  Plant response rating, Nutsedge, Yellow: 0
[1]; [21]
  Plant response rating, Nutsedge, Yellow: 0
[1]; [22]
  Plant response rating, Nutsedge, Yellow: 0
[2]; [25]
  Plant response rating, Velvetleaf: 0
[2]; [20]
  Plant response rating, Velvetleaf: 5
[2]; [21]
  Plant response rating, Velvetleaf: 50
[2]; [22]
  Plant response rating, Velvetleaf: 70
[3]; [24]
  Plant response rating, Nightshade: 50
[3]; 125 g ai/ha, scale 0 to 100
  Plant response rating, Nightshade: 60
[3]; 250 g ai/ha, scale 0 to 100
  Plant response rating, Nightshade: 80

## Nc1nc(C2CC2)nc(C(=O)[O-])c1Cl.[Na+] [Compound 77, 6-amino-5-chloro-2-cyclopropyl-4-pyrimidinecarboxylic acid monosodium salt]
[1]; [15]
  pest or weed control at 31 g/ha: 0%
[1]; [16]
  pest or weed control at 62 g/ha: 0%
[1]; [26]
  Plant response rating, Nutsedge, Yellow: 0
[2]; [19]
  pest or weed control at 62 g/ha: 85%
[2]; [26]
  Plant response rating, Velvetleaf: 10
[2]; [25]
  Plant response rating, Velvetleaf: 30
[3]; 16 g ai/ha, scale 0 to 100, 0 no effect, 100 complete control
  Plant response rating, Nightshade: 0
[3]; 31 g ai/ha, scale 0 to 100, 0 no effect, 100 complete control
  Plant response rating, Nightshade: 0
[3]; [24]
  Plant response rating, Nightshade: 0

## CCOC(=O)c1nc(-c2ccc(Br)cc2)nc(N)c1Cl [Compound 94, ethyl 6-amino-2-(4-bromophenyl)-5-chloro-4-pyrimidinecarboxylate]
[4]; 32 g ai/ha
  Watergrass, Late plant response rating: 0
[4]; 64 g ai/ha
  Watergrass, Late plant response rating: 0
[4]; 125 g ai/ha
  Watergrass, Late plant response rating: 0
[4]; 250 g ai/ha
  Watergrass, Late plant response rating: 0
[4]; 16 g ai/ha
  Plant response rating, Watergrass, Late: 0
[5]; 32 g ai/ha
  Watergrass, Early plant response rating: 0
[5]; 64 g ai/ha
  Watergrass, Early plant response rating: 0
[5]; 125 g ai/ha
  Watergrass, Early plant response rating: 0
[5]; 250 g ai/ha
  Watergrass, Early plant response rating: 0
[5]; 16 g ai/ha
  Plant response rating, Watergrass, Early: 0
[6]; 32 g ai/ha
  Rice, Water Seeded plant response rating: 0
[6]; 125 g ai/ha
  Rice, Water Seeded plant response rating: 10
[6]; 250 g ai/ha
  Rice, Water Seeded plant response rating: 10
[6]; 16 g ai/ha
  Plant response rating, Rice, Water Seeded: 0
[7]; 32 g ai/ha
  Rice, Transplanted plant response rating: 0
[7]; 64 g ai/ha
  Rice, Transplanted plant response rating: 10
[7]; 125 g ai/ha
  Rice, Transplanted plant response rating: 10
[7]; 250 g ai/ha
  Rice, Transplanted plant response rating: 20
[7]; 16 g ai/ha
  Plant response rating, Rice, Transplanted: 0
[8]; 32 g ai/ha
  Sprangletop, Brdd. plant response rating: 0
[8]; 64 g ai/ha
  Sprangletop, Brdd. plant response rating: 0
[8]; 125 g ai/ha
  Sprangletop, Brdd. plant response rating: 20
[8]; 250 g ai/ha
  Sprangletop, Brdd. plant response rating: 40
[8]; 16 g ai/ha
  Plant response rating, Sprangletop, Brdd.: 0
[9]; 32 g ai/ha
  Ducksalad plant response rating: 100
[9]; 64 g ai/ha
  Ducksalad plant response rating: 100
[9]; 125 g ai/ha
  Ducksalad plant response rating: 100
[9]; 250 g ai/ha
  Ducksalad plant response rating: 100
[9]; 16 g ai/ha
  Plant response rating, Ducksalad: 100
[10]; 32 g ai/ha
  Barnyardgrass plant response rating: 0
[10]; 64 g ai/ha
  Barnyardgrass plant response rating: 0
[10]; 125 g ai/ha
  Barnyardgrass plant response rating: 0
[10]; 250 g ai/ha
  Barnyardgrass plant response rating: 0
[10]; 16 g ai/ha
  Plant response rating, Barnyardgrass: 0
[11]; 32 g ai/ha
  Junglerice plant response rating: 0
[11]; 64 g ai/ha
  Junglerice plant response rating: 0
[11]; 125 g ai/ha
  Junglerice plant response rating: 0
[11]; 250 g ai/ha
  Junglerice plant response rating: 0
[11]; 16 g ai/ha
  Plant response rating, Junglerice: 0
[12]; 32 g ai/ha
  Sedge, Umbrella plant response rating: 100
[12]; 64 g ai/ha
  Sedge, Umbrella plant response rating: 100
[12]; 125 g ai/ha
  Sedge, Umbrella plant response rating: 100
[12]; 250 g ai/ha
  Sedge, Umbrella plant response rating: 100
[12]; 16 g ai/ha
  Plant response rating, Sedge, Umbrella: 100
[1]; Cyperus, post-emergence, Postemergence, 16 g ai/ha, read-out: Plant response rating (scale of 0 to 100), Nutsedge, Yellow
  pest or weed control at 16 g/ha: 55%
[1]; [13]
  pest or weed control at 31 g/ha: 60%
[1]; Cyperus, post-emergence, Postemergence, 62 g ai/ha, read-out: Plant response rating (scale of 0 to 100), Nutsedge, Yellow
  pest or weed control at 62 g/ha: 70%
[1]; [14]
  pest or weed control at 125 g/ha: 75%
[2]; Abutilon theophrasti, post-emergence, Postemergence, 16 g ai/ha, read-out: Plant response rating (scale of 0 to 100), Velvetleaf
  pest or weed control at 16 g/ha: 75%
[2]; [17]
  pest or weed control at 31 g/ha: 90%
[2]; Abutilon theophrasti, post-emergence, Postemergence, 62 g ai/ha, read-out: Plant response rating (scale of 0 to 100), Velvetleaf
  pest or weed control at 62 g/ha: 95%
[2]; [18]
  pest or weed control at 125 g/ha: 95%
